Results as given in patent publication US6838253B2, “Regulation of intracellular glucocorticoid concentrations” (The University of Edinburgh, priority 1995, dated 2005).
Blank lines part the entries; values can stand above or below the molecule they belong to.

What was measured:
rat hippocampal cells = assay: kainic acid neurotoxicity, hippocampal cell survival; type: cell-based; details: for kainic acid neurotoxicity: pretreatment with steroid alone
Text: To assess the influence of 11β-reductase activity on neurotoxicity, cells were exposed to kainic acid and cell survival determined.

[1] = thymic involution in mice; type: in vivo, mouse; details: wild-type control mice; homozygous mutant mice resistant
Text: Homozygotes for the mutant allele are morphologically intact and fully fertile. No survival bias is conferred by the mutant allele. However, neither 11β-HSD1 mRNA nor enzyme activity (techniques as above) were detected in mutant homozygotes, and reduced mRNA and activity were detected in heterozygotes.

[2] = target: T1, hepatic 11β-reductase activity (Homo sapiens, UniProt P28845); assay: conversion of oral cortisone to cortisol on first pass as index of 11β-reductase activity in vivo in man
T1 construct: from tissue; host or cells: liver of human volunteers, in vivo
Text: Consistent with the observations in animal tissues and cultured cells described above, we have established the relative activities of 11β-dehydrogenase and 11β-reductase in vivo in different organs in man by measuring the cortisol/cortisone ratio in plasma from selective venous catheterisations. In most organs the venous effluent contains cortisol and cortisone in a ratio of ˜10:1. However, in renal vein plasma the ratio is 3:1, while in hepatic vein plasma the ratio is 55:1, consistent with potent 11β-dehydrogenase activity due to 11β-HSD2 expression in the kidney and potent 11β-reductase 11β-HSD1 activity in the liver. Moreover, cortisone taken orally, and therefore delivered to the liver via the portal vein, is avidly converted on first pass to cortisol in the peripheral circulation. Using this index of 11β-reductase activity we have shown that, in addition to inhibiting renal 11β-dehydrogenase activity, carbenoxolone (but not glycyrrhetinic acid) inhibits hepatic 11β-reductase activity in vivo in man.

[3] = euglycaemic hyperinsulinaemic clamp study with forearm glucose uptake in healthy male volunteers; type: in vivo, human
Experimental: Seven non-obese (Body Mass Index <25) healthy male Caucasian volunteers on no medication, aged 27-36 years, were given carbenoxolone (100 mg every 8 hours orally) or matched placebo for seven days in a randomised double-blind cross-over design, with phases separated by at least 4 weeks. On the seventh day of each phase euglycaemic hyperinsulinaemic clamp studies with measurement of forearm glucose uptake were performed, as described in detail in reference 16, the content of which is incorporated herein by reference.

[4] = fasting plasma glucose in rats after 14 days of subcutaneous treatment; type: in vivo, rat; details: 1, 3 or 10 mg daily s.c., male Wistar Hans rats
Experimental: Intact male Wistar Hans rats of body weight 200-250 g were treated with daily subcutaneous injection of 1 ml of either 0.9% saline (vehicle) or carbenoxolone (made up to 1, 3, or 10 mg/ml in 0.9% saline) for 14 days. They were fasted from 4 pm and blood obtained by tail-nick at 9 am the next day. Plasma glucose was measured by a glucose oxidase method on a Beckman CX-3 autoanalyser.

11β-reductase activity = target: T2, 11β-reductase activity (Rattus norvegicus, UniProt P16232); assay: 11β-reductase activity in whole primary fetal hippocampal cells in culture; type: cell-based; details: 10^−6M
T2 construct: endogenous in cells; host or cells: primary cultures of fetal rat hippocampal cells
Text: Hippocampi were dissected from Wistar rat embryos on day 18.5 of pregnancy and cultured in DMEM with supplements, as described. These cells expressed 11β-HSD1 mRNA, and homogenised cells performed either 11β-dehydrogenase or 11β-reductase activity.

5β-reductase = target: T3, 5β-reductase (Homo sapiens, UniProt P51857); details: reference 35; cited from earlier work
T3 sequence (P51857 1-326): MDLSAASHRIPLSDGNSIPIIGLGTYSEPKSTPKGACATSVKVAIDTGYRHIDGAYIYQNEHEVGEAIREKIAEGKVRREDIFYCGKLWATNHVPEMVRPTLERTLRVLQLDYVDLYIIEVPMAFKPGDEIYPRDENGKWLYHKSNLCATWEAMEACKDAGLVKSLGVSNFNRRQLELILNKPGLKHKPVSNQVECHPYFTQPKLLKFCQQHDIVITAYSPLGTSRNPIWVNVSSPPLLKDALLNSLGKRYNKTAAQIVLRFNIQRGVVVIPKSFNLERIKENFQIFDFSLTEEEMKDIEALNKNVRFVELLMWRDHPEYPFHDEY

[5] = test system: corticosteroids receptors; details: reference 36; cited from earlier work
adipocytes = details: higher concentrations (mmol/l), without corticosteroid, reference 37; cited from earlier work
glucocorticoid receptors = target: T4, glucocorticoid receptors (Homo sapiens, UniProt P04150); details: reference 29; cited from earlier work
T4 sequence (P04150 1-777): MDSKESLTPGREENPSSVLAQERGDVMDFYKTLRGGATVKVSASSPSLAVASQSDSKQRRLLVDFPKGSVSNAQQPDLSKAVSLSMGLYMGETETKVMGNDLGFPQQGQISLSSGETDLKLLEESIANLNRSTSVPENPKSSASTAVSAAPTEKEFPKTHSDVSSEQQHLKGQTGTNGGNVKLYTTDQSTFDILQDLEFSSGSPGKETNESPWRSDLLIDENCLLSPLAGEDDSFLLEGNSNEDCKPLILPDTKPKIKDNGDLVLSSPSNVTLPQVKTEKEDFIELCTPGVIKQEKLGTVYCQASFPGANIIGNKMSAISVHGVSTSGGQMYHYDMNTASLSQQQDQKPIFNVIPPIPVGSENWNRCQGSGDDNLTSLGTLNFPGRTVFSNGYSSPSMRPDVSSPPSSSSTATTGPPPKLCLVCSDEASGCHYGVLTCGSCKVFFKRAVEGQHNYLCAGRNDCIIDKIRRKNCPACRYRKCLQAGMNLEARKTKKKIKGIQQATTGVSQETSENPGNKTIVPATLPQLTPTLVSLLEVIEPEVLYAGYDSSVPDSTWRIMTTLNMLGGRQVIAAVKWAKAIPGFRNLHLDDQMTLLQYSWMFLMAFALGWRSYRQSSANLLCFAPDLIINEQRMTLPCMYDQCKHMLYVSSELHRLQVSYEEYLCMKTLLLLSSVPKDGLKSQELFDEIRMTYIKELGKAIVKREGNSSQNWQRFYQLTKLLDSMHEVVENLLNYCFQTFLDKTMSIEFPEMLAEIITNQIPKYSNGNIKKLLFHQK

11β-HSD = 11β-HSD activity in tissue homogenates of treated gonadectomised rats; type: in vivo, rat
Text: (§1) Male Han Wistar rats (200-250 g) underwent gonadectomy and either bilateral adrenalectomy or sham-operation under halothane anaesthesia. For estradiol administration, silicone elastomer capsules (1.95 mm internal diameter, 3.125 mm external diameter) (Dow Corning Corporation, Midland, Mich., USA) containing 17β-estradiol (Sigma, Poole, UK) were implanted subcutaneously. For animals treated for 42 days with estradiol, the capsules were removed and replaced after 21 days. Control animals were implanted with blank capsules. Adrenalectomised rats were maintained on 0.9%. saline. Rats were killed 10, 21 or 42 days after surgery. Liver and hippocampus were removed and dissected on ice for assay of 11β-HSD activity and an aliquot of liver was frozen on dry ice and stored at −80° C. until extraction of RNA.
Tissues were homogenised in Krebs-Ringer bicarbonate buffer with 0.2% glucose, pH 7.4, and assayed as described previously. Homogenates (6.25 μg of liver protein, 250 μg of hippocampal protein) were incubated with 200 μM NADP (Sigma, Poole, UK) and 12 nM [^3H]-corticosterone (specific activity 84 Ci/mmol; Amersham International, Aylesbury, UK) in a total volume of 250 μl with […] 11β-dehydrogenase activity was quantified in this assay as a measure of active enzyme since 11β-reductase is unstable in homogenates. Steroids were extracted with ethyl acetate and separated by HPLC with on-line β courtier. 11β-HSD activity was expressed as conversion of corticosterone to 11-dehydrocorticosterone, after correction for apparent conversion in incubates without enzyme (<3%).

11β-HSD1 mRNA = assay: northern analysis of hepatic 11β-HSD1 mRNA in treated rats; type: in vivo, rat
Text: as §1
Total RNA was extracted from liver tissue by the guanidinium thiocyanate method, as described and resuspended in diethylpyrocarbonate-treated water. RNA concentration and purity was assayed spectrophotometrically. 20 μg aliquots were separated on a 1.2% agarose gel containing 2% formaldehyde. […] Optical density was determined using a computer-driven image analysis system (Seescan plc, Cambs, UK). Values were expressed as a percentage of control levels.

PEPCK mRNA = assay: northern analysis of hepatic PEPCK mRNA in treated rats; type: in vivo, rat
Text: as §1
Total RNA was extracted from liver tissue by the guanidinium thiocyanate method, as described and resuspended in diethylpyrocarbonate-treated water. RNA concentration and purity was assayed spectrophotometrically. 20 μg aliquots were separated on a 1.2% agarose gel containing 2% formaldehyde. RNA was blotted onto nitrocellulose membranes (Hybond-N, Amersham International, UK), prehybridized in 6 ml phosphate buffer (0.2 M NaH2PO4, 0.6 M NaH2PO4, 5 mM EDTA), 3 ml 20% SDS and 100 μg denatured herring testis DNA (Sigma, Poole, UK) for 2 h at 55° C. and hybridized at 55° C. overnight in the same solution containing rat 11β-HSD1 or PEPCK cDNA, labelled with ^32P-dCTP using a random primed DNA labelling kit (Boehringer Mannheim UK Ltd., Lewes, UK). Three 20 min washes were carried out at room temperature in 1×SSC (0.3 M NaCl, 0.03 M sodium citrate), 0.1% SDS followed by a stringent wash at 55° C. for 30 min in 0.3×SSC, 0.1% SDS. Filters were exposed to autoradiographic film for 1-4 days (adjusted to ensure the signal density was within the linear range). […] Optical density was determined using a computer-driven image analysis system (Seescan plc, Cambs, UK). Values were expressed as a percentage of control levels.

[6] = 100 mg every 8 hours orally, seven days
[7] = 100 mg every 8 hours orally, seven days, healthy men

T1 sequence (P28845 whole entry): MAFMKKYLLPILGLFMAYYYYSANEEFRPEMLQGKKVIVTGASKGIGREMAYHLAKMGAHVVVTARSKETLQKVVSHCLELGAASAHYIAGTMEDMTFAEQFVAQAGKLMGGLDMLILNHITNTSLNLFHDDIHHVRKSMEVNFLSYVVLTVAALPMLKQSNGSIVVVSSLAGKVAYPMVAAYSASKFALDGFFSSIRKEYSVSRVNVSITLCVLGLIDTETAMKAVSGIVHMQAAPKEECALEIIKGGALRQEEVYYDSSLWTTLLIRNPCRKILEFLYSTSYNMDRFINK
T2 sequence (P16232 whole entry): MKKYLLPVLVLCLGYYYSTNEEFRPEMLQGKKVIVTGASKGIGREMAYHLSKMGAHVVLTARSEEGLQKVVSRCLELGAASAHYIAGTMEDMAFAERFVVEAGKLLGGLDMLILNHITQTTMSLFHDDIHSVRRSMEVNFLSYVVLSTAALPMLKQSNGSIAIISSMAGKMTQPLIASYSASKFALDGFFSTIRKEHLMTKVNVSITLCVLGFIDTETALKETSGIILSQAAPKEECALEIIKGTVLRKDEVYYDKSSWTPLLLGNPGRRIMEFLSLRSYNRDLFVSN

Structure (SMILES): C[C@]12CC(=O)[C@H]3[C@@H](CCC4=CC(=O)CC[C@@]43C)[C@@H]1CC[C@@H]2C(=O)CO [11-dehydrocorticosterone]
kainic acid neurotoxicity (rat hippocampal cells): potentiated | thymic involution [1]: thymic involution seen

effect on 11β-reductase in vivo [2]: inhibits | hepatic 11β-reductase activity in vivo in man ([2]; oral cortisone converted to cortisol, man): inhibits | forearm blood flow [3, 6]: not elevated | plasma renin, aldosterone, and potassium concentrations ([3]; consequent on renal effects): suppressed | 11β-reductase activity in whole hippocampal cells (11β-reductase activity): almost abolished
Structure (SMILES): CC1(C)[C@@H](OC(=O)CCC(=O)O)CC[C@]2(C)[C@H]3C(=O)C=C4[C@@H]5C[C@@](C)(C(=O)O)CC[C@]5(C)CC[C@@]4(C)[C@]3(C)CC[C@@H]12 [carbenoxolone, 3β-(3-carboxypropionyloxy)-11-oxo-olean-2-en 30-oic acid]
blood pressure [3, 6]: not elevated | fasting glucose concentration [3, 7]: no change | fasting insulin concentration [3, 7]: fall | peripheral glucose uptake as measured by forearm glucose uptake ([3]; euglycaemic clamp, day 7, versus placebo): No difference was detected | fasting glucose concentrations [4]: dose-dependent fall | potentiating effect of 11-dehydrocorticosterone on kainic acid neurotoxicity (rat hippocampal cells; with 11-dehydrocorticosterone): protected the cells | effect of corticosterone on kainic acid neurotoxicity (rat hippocampal cells; with corticosterone): did not alter | 5β-reductase inhibition (5β-reductase): inhibits | affinity for corticosteroids receptors in vitro [5]: low affinity | action of insulin in adipocytes (adipocytes): antagonises

Structure (SMILES): C[C@]12C[C@H](O)[C@H]3[C@@H](CCC4=CC(=O)CC[C@@]43C)[C@@H]1CC[C@@H]2C(=O)CO [corticosterone]
kainic acid neurotoxicity (rat hippocampal cells): potentiated

Structure (SMILES): C[C@]12CCC(=O)C=C1CC[C@@H]1[C@@H]2[C@@H](O)C[C@@]2(C)[C@H]1CC[C@]2(O)C(=O)CO [cortisol]
affinity of glucocorticoid receptors relative to mineralocorticoid receptors (glucocorticoid receptors): 10-40 times lower

Structure (SMILES): C[C@]12CC[C@@H]3c4ccc(O)cc4CC[C@H]3[C@@H]1CC[C@@H]2O [estradiol, 17β-estradiol]
hepatic 11β-HSD activity (11β-HSD; 10, 21 and 42 days, gonadectomised male rats): marked decreases | 11β-HSD activity in the hippocampus (11β-HSD; 21 or 42 days): not altered | conversion of corticosterone to 11-dehydrocorticosterone in liver homogenates (11β-HSD; 42 days of treatment, prolonged (60 min) incubation): 12.2±14.7% | liver 11β-HSD1 activity in adrenalectomised rats (11β-HSD; adrenalectomised, 21 days): reduced | liver 11β-HSD1 mRNA in adrenalectomised rats (11β-HSD1 mRNA; adrenalectomised, 21 days): reduced | hepatic 11β-HSD1 mRNA expression (11β-HSD1 mRNA; after 21 and 42 days, gonadectomised male rats): undetectable levels | PEPCK mRNA levels in adrenalectomised rats (PEPCK mRNA; adrenalectomised, 21 days, compared with adrenalectomy alone): increased | hepatic PEPCK gene expression (PEPCK mRNA; after 21 days, adrenally intact): decreased | PEPCK mRNA expression (PEPCK mRNA; after 42 days): significantly reduced

effect on 11β-reductase in vivo [2]: no effect
Structure (SMILES): CC1(C)[C@@H](O)CC[C@]2(C)[C@H]3C(=O)C=C4[C@@H]5C[C@@](C)(C(=O)O)CC[C@]5(C)CC[C@@]4(C)[C@]3(C)CC[C@@H]12 [glycyrrhetinic acid]
